Experimental data taken from PubChem BioAssay (NCI).
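How tested: cells in 96-well plates exposed to compound for 48 hours at five concentrations. Here, GI50 denotes the concentration required for 50% inhibition of growth. TGI marks complete inhibition of growth.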

Columns and labels:
Assay in all cases: NCI anticancer screen, dose series, 48 h; in the data active = GI50 below about 0.43 µM; inactive = the rest
HT29 colon = system: HT29 colon
MALME-3M melanoma = system: MALME-3M melanoma
NCI-H460 lung = system: NCI-H460 lung
HCC-2998 colon = system: HCC-2998 colon
HOP-92 NSCLC = system: HOP-92 NSCLC
SK-OV-3 ovarian = system: SK-OV-3 ovarian
SW-620 colon = system: SW-620 colon
IGROV1 ovarian = system: IGROV1 ovarian
DU-145 prostate = system: DU-145 prostate
TK-10 renal = system: TK-10 renal
A549 NSCLC = system: A549 NSCLC
OVCAR-3 ovarian = system: OVCAR-3 ovarian
CAKI-1 renal = system: CAKI-1 renal
NCI/ADR-RES ovarian = system: NCI/ADR-RES ovarian
HCT-116 colon = system: HCT-116 colon
NCI-H226 lung = system: NCI-H226 lung
MDA-MB-231 breast = system: MDA-MB-231 breast
SK-MEL-5 melanoma = system: SK-MEL-5 melanoma
UACC-257 melanoma = system: UACC-257 melanoma
SF-268 CNS = system: SF-268 CNS
CCRF-CEM leukemia = system: CCRF-CEM leukemia
MCF7 breast = system: MCF7 breast
UACC-62 melanoma = system: UACC-62 melanoma
RPMI-8226 leukemia = system: RPMI-8226 leukemia
K-562 leukemia = system: K-562 leukemia
HS 578T breast = system: HS 578T breast
786-0 renal = system: 786-0 renal
EKVX NSCLC = system: EKVX NSCLC
OVCAR-8 ovarian = system: OVCAR-8 ovarian
SNB-19 CNS = system: SNB-19 CNS
SF-295 CNS = system: SF-295 CNS
PC-3 prostate = system: PC-3 prostate
SK-MEL-28 melanoma = system: SK-MEL-28 melanoma
UO-31 renal = system: UO-31 renal
KM12 colon = system: KM12 colon
SNB-75 CNS = system: SNB-75 CNS
OVCAR-5 ovarian = system: OVCAR-5 ovarian
LOX IMVI melanoma = system: LOX IMVI melanoma
M14 melanoma = system: M14 melanoma
HL-60(TB) leukemia = system: HL-60(TB) leukemia
MDA-MB-435 = system: MDA-MB-435
COLO 205 colon = system: COLO 205 colon
SF-539 CNS = system: SF-539 CNS
NCI-H23 lung = system: NCI-H23 lung
U251 CNS = system: U251 CNS
A498 renal = system: A498 renal
SK-MEL-2 melanoma = system: SK-MEL-2 melanoma
NCI-H522 lung = system: NCI-H522 lung
HOP-62 NSCLC = system: HOP-62 NSCLC
SR leukemia = system: SR leukemia
ACHN renal = system: ACHN renal
BT-549 breast = system: BT-549 breast
MOLT-4 leukemia = system: MOLT-4 leukemia
OVCAR-4 ovarian = system: OVCAR-4 ovarian
HCT-15 colon = system: HCT-15 colon
T-47D breast = system: T-47D breast

CN1CCN(c2ccc3nc(-c4ccc(OCCCCN5CCN(CCCCN6C(=O)c7cccc8cccc(c78)C6=O)CC5)cc4)[nH]c3c2)CC1
42.6 µM: TGI (MALME-3M melanoma)
64.1 µM: TGI (ACHN renal)
76.9 µM: TGI (SK-MEL-5 melanoma)
inactive: GI50 (HT29 colon) 86.4 µM | GI50 (MALME-3M melanoma) 20.9 µM | GI50 (NCI-H460 lung) 63.4 µM | GI50 (HCC-2998 colon) > 100 µM | GI50 (HOP-92 NSCLC) 71.4 µM | GI50 (SK-OV-3 ovarian) > 100 µM | GI50 (SW-620 colon) 39.2 µM | GI50 (IGROV1 ovarian) 48.4 µM | GI50 (DU-145 prostate) 29.4 µM | GI50 (TK-10 renal) 37.4 µM | GI50 (A549 NSCLC) > 100 µM | GI50 (OVCAR-3 ovarian) 36.6 µM | GI50 (CAKI-1 renal) 73.1 µM | GI50 (NCI/ADR-RES ovarian) > 100 µM | GI50 (HCT-116 colon) > 100 µM | GI50 (NCI-H226 lung) 37.6 µM | GI50 (MDA-MB-231 breast) 54.7 µM | GI50 (SK-MEL-5 melanoma) 18.8 µM | GI50 (UACC-257 melanoma) 30.3 µM | GI50 (SF-268 CNS) > 100 µM | GI50 (CCRF-CEM leukemia) 47.8 µM | GI50 (MCF7 breast) 74.7 µM | GI50 (UACC-62 melanoma) 40.7 µM | GI50 (RPMI-8226 leukemia) 33.9 µM | GI50 (K-562 leukemia) > 100 µM | GI50 (HS 578T breast) 3.39 µM | GI50 (786-0 renal) > 100 µM | GI50 (EKVX NSCLC) > 100 µM | GI50 (OVCAR-8 ovarian) 48.6 µM | GI50 (SNB-19 CNS) > 100 µM | GI50 (SF-295 CNS) 62.4 µM | GI50 (PC-3 prostate) 69.3 µM | GI50 (SK-MEL-28 melanoma) 19.4 µM | GI50 (UO-31 renal) 58.4 µM | GI50 (KM12 colon) 43.8 µM | GI50 (SNB-75 CNS) 28.9 µM | GI50 (OVCAR-5 ovarian) > 100 µM | GI50 (LOX IMVI melanoma) 37.3 µM | GI50 (M14 melanoma) > 100 µM | GI50 (HL-60(TB) leukemia) 25.1 µM | GI50 (MDA-MB-435) 41 µM | GI50 (COLO 205 colon) 96.8 µM | GI50 (SF-539 CNS) 33.5 µM | GI50 (NCI-H23 lung) > 100 µM | GI50 (U251 CNS) 27.9 µM | GI50 (A498 renal) > 100 µM | GI50 (SK-MEL-2 melanoma) 95.6 µM | GI50 (NCI-H522 lung) 52.9 µM | GI50 (HOP-62 NSCLC) > 100 µM | GI50 (SR leukemia) 12.9 µM | GI50 (ACHN renal) 25.6 µM | GI50 (BT-549 breast) 40.4 µM | GI50 (MOLT-4 leukemia) 51.1 µM | GI50 (OVCAR-4 ovarian) > 100 µM | GI50 (HCT-15 colon) 35.3 µM | GI50 (T-47D breast) 31.2 µM
> 100 µM: TGI (HT29 colon) | TGI (NCI-H460 lung) | TGI (HCC-2998 colon) | TGI (HOP-92 NSCLC) | TGI (SK-OV-3 ovarian) | TGI (SW-620 colon) | TGI (IGROV1 ovarian) | TGI (DU-145 prostate) | TGI (TK-10 renal) | TGI (A549 NSCLC) | TGI (OVCAR-3 ovarian) | TGI (CAKI-1 renal) | TGI (NCI/ADR-RES ovarian) | TGI (HCT-116 colon) | TGI (NCI-H226 lung) | TGI (MDA-MB-231 breast) | TGI (SF-268 CNS) | TGI (CCRF-CEM leukemia) | TGI (MCF7 breast) | TGI (UACC-62 melanoma) | TGI (RPMI-8226 leukemia) | TGI (K-562 leukemia) | TGI (HS 578T breast) | TGI (786-0 renal) | TGI (EKVX NSCLC) | TGI (OVCAR-8 ovarian) | TGI (SNB-19 CNS) | TGI (SF-295 CNS) | TGI (PC-3 prostate) | TGI (UO-31 renal) | TGI (KM12 colon) | TGI (SNB-75 CNS) | TGI (OVCAR-5 ovarian) | TGI (LOX IMVI melanoma) | TGI (M14 melanoma) | TGI (HL-60(TB) leukemia) | TGI (MDA-MB-435) | TGI (COLO 205 colon) | TGI (SF-539 CNS) | TGI (NCI-H23 lung) | TGI (U251 CNS) | TGI (A498 renal) | TGI (SK-MEL-2 melanoma) | TGI (NCI-H522 lung) | TGI (HOP-62 NSCLC) | TGI (SR leukemia) | TGI (BT-549 breast) | TGI (MOLT-4 leukemia) | TGI (OVCAR-4 ovarian) | TGI (HCT-15 colon) | TGI (T-47D breast)
74.7 µM: TGI (UACC-257 melanoma)
49.9 µM: TGI (SK-MEL-28 melanoma)
